Here are results for 4 compounds from patent publication US8377706B2, “Olfactory receptor-functionalized transistors for highly selective bioelectronic nose and biosensor using the same” (Seoul National University Industry Foundation, priority 2008, dated 2013).

Each structure is given as a SMILES string.

A short description of assay [1]: Control: conductance measurement on carbon nanotube transistors with lipid membranes in which hOR2AG1 was not included. The settings on record: lipid membranes without olfactory receptors. As for the experimental part: (§1) To measure the effects of odorants on the biosensor using human olfactory receptor functionalized transistors, drops of 9 μl phosphate buffered saline (PBS) were placed onto the human olfactory receptor functionalized transistors manufactured in […]. Subsequently, the source-drain current was monitored after the introduction of a solution containing specific odorants. A bias voltage of 100 mV was maintained at all time during the electrical measurement (See FIG. 8).
(§2) The results are shown in FIGS. 12 and 13, respectively. As shown respectively in FIGS. 12 and 13, each of the conductance modulations was observed on the biosensors using modified carbon nanotube transistors with lipid membranes in which hOR2AG1 was not included and bare carbon nanotube transistors, after the introduction of amyl butyrate at 100 mM.

For assay [2], the target named is T1, human olfactory receptor 2AG1 (hOR2AG1) protein (Homo sapiens, UniProt Q9H205).
T1 construct: made in house; host or cells: Escherichia coli
T1 sequence (Q9H205 1-316): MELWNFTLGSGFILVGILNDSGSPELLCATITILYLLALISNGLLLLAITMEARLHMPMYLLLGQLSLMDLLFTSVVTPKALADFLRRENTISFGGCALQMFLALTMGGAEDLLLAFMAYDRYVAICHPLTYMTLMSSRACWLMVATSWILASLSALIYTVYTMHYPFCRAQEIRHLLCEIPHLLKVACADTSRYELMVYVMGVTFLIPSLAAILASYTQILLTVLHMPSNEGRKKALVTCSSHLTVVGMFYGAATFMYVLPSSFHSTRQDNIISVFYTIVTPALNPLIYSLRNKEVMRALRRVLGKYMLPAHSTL
Kind of assay: Conductance (source-drain current) measurement of biosensor using hOR2AG1-functionalized swCNT transistors after introduction of odorants. The settings on record: for Detection Limit: lipid membranes with hOR2AG1 on swCNT-FET, odorant solution in PBS, bias 100 mV. The assay is classed as biochemical. How it is done:
1 μl of the hOR2AG1-containing fraction collected in Example 1 was evenly spread to cover the swCNTs and electrodes, and vacuum-dried for 4 hours to fix the hOR2AG1, thereby manufacturing human olfactory receptor-functionalized carbon nanotube transistors.
as §1
A 1 M stock solution of the odorants was prepared, and additional dilutions (from 10^−1 M to 10^−13 M) were obtained by serial 1:10 dilutions in PBS.
Butyl butyrate, phenyl valerate, and propyl butyrate were introduced at various concentrations on the biosensors using hOR2AG1 functionalized transistors manufactured in Example 2 of the present invention, each of the conductance modulations was measured, and the results were recorded in FIGS. 14 to 16, respectively. The arrows illustrated in FIGS. 14 to 16 show time points of introduction of each odorant.

The nature of assay [3]: Control: conductance measurement on bare carbon nanotube transistors. The following applies: bare CNT. How it is done: as §1, §2
Another assay addresses T2, hOR2AG1 (Homo sapiens, UniProt Q9H205).
T2 sequence (Q9H205 1-316): T1 sequence (Q9H205 1-316)
The settings on record: known; cited from earlier work.

On to `CCCCCOC(=O)CCC` [Amyl butyrate (AB), amyl butyrate], for which the entries for the “Detection Limit” value in assay [1], in assay [2] and in assay [3] were 100 mM, 1e-10 mM and 100 mM, respectively. Further, the “Source-drain current after introduction of odorant” value in assay [2] (100 fM, 1 pM, 10 pM and 100 pM (FIG. 10)) is listed as “sharply decreased”. Further, the “Effect on biosensor conductance” value in assay [2] (odorant at 1 pM (FIG. 11)) is on record as “sharply decreased”. In addition, the “Activation of hOR2AG1” value at hOR2AG1 was “activated”.
As to `CCCCOC(=O)CCC` [Butyl butyrate (BB), butyl butyrate], the “Detection Limit” value in assay [2] is recorded as 10 mM. The “Effect on biosensor conductance” value in assay [2] (odorant at 100 μM (FIG. 11)) is given as “did not affect the biosensor”.
For `CCCCCOC(=O)CCCC` [Pentyl valerate (PV), pentyl valerate] the same measures were 10 mM and “did not affect the biosensor”.
For the compound `CCCOC(=O)CCC` [Propyl butyrate (PB), propyl butyrate], the “Detection Limit” value in assay [2] turned out to be 10 mM. Besides, the “Effect on biosensor conductance” value in assay [2] (odorant at 100 μM (FIG. 11)) was “did not affect the biosensor”.
